{"source": "patent US20140206608A1", "about": "(priority 2012, published 2014)", "key": {"[1]": {"tested_on": "plasmin", "assay": "Enzymatic stability testing versus plasmin", "type": "in vitro ADME", "conditions": "human, human recombinant plasmin, pH 8.3; % of degradation after 120 min; 2 μM peptide, 37° C.; read-out: Lability versus enzymatic degradation, Plasmin", "method": "(§1) The reaction was stopped by addition of ethanol. The samples were analyzed by LC-MS/MS. […] The metabolic lability is given as % of degradation."}, "[2]": {"target": "T1, human glucagon receptor (hGLUC R) (Homo sapiens, UniProt P47871)", "T1 construct": "expressed in transfected cells; host or cells: HEK-293", "T1 sequence (P47871 26-477)": "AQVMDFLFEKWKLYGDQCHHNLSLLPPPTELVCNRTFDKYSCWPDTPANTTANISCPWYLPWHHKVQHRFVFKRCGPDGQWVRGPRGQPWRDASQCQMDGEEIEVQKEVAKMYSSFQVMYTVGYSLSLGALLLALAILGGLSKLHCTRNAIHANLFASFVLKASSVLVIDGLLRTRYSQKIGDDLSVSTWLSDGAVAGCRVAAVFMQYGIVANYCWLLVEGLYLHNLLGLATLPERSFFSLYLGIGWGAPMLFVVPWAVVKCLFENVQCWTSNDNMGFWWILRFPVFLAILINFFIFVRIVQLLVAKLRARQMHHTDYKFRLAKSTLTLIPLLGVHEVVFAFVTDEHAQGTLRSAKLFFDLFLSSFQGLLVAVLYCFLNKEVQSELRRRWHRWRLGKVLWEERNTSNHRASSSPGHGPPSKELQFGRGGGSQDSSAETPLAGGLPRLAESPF", "assay": "cAMP response of HEK-293 cells stably expressing human glucagon receptor (HTRF)", "type": "cell-based", "conditions": "EC50 hGLUC R, Table 7; cAMP formation", "method": "(§2) cAMP content of cells was determined using a kit from Cisbio Corp. (cat. no. 62AM4PEC) based on HTRF (Homogenous Time Resolved Fluorescence). For preparation, cells were split into T175 culture flasks and grown overnight to near confluency in medium (DMEM/10% FBS). Medium was then removed and cells washed with PBS lacking calcium and magnesium, followed by proteinase treatment with accutase (Sigma-Aldrich cat. no. A6964). Detached cells were washed and resuspended in assay buffer (1×HBSS; 20 mM HEPES, 0.1% BSA, 2 mM IBMX) and cellular density determined. They were then diluted to 400000 cells/ml and 25 μl-aliquots dispensed into the wells of 96-well plates. For measurement, 25 μl of test compound in assay buffer was added to the wells, followed by incubation for 30 minutes at room temperature."}, "[3]": {"tested_on": "trypsin", "assay": "Enzymatic stability testing versus trypsin", "type": "in vitro ADME", "conditions": "human, human recombinant trypsin, pH 8.3; % of degradation after 120 min; 2 μM peptide, 37° C.; read-out: Lability versus enzymatic degradation, Trypsin", "method": "as §1"}, "[4]": {"target": "T2, human GIP receptor (hGIP R) (Homo sapiens, UniProt P48546)", "T2 construct": "expressed in transfected cells; host or cells: HEK-293", "T2 sequence (P48546 22-466)": "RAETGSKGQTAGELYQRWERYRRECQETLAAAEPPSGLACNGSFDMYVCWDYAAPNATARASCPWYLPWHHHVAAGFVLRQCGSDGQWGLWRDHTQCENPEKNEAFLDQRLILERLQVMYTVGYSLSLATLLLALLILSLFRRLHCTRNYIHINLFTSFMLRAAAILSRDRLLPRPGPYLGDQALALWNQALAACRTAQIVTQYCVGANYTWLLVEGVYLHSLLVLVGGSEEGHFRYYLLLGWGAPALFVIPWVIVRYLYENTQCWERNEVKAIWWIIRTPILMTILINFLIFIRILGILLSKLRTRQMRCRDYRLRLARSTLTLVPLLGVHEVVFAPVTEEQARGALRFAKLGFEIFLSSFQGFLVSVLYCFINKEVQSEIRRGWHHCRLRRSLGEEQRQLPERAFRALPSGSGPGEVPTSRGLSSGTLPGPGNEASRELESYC", "assay": "cAMP response of HEK-293 cells stably expressing human GIP receptor (HTRF)", "type": "cell-based", "method": "as §2"}, "[5]": {"assay": "Solubility testing in buffer systems (HPLC-UV)", "type": "physicochemical", "conditions": "buffer system, target concentration 1.0 mg/mL"}, "[6]": {"assay": "in vivo", "conditions": "mouse, plasma, sc, 1 mg/kg", "description": "Mice were dosed 1 mg/kg subcutaneously (s.c.). The mice were sacrificed and blood samples were collected after 0.25, 0.5, 1, 2, 4, 8, 16 and 24 hours post application. Plasma samples were analyzed after protein precipitation via liquid chromatography mass spectrometry (LC/MS). PK parameters and half-life were calculated using WinonLin Version 5.2.1 (non-compartment model)."}, "[7]": {"assay": "Chemical stability in solution, 7 days at 25° C. (% remaining peptide)", "type": "physicochemical", "conditions": "% remaining peptide after 7 days at 25° C.", "excerpt": "The chemical stability is expressed as “% remaining peptide”."}}, "note": "Read-outs that look alike come from different tables or passages of the source. *1 amine or outer side, *2 acyl side, *3 side chain or, on linkers, in order; H or OH if unused. Where a SMILES comes first, the peptide text is derived from it. Side-chain parts run from the residue outwards. [ ]: non-standard residue; d: D form. The star is where a group is joined. γGlu = O=C(O)[C@H](CCC(=O)[*:2])N[*:1]; Stearoyl = CCCCCCCCCCCCCCCCCC(=O)*; Aib = CC(C)(N)C(=O)O", "data": [{"smiles": "CCCCCCCCCCCCCCCCCC(=O)N[C@@H](CCC(=O)NCCCC[C@H](NC(=O)[C@H](CCC(N)=O)NC(=O)[C@@H](NC(=O)[C@H](CO)NC(=O)[C@H](CC(C)C)NC(=O)[C@H](CC(=O)O)NC(=O)[C@H](CO)NC(=O)[C@@H](NC(=O)[C@H](Cc1ccccc1)NC(=O)[C@@H](NC(=O)CNC(=O)[C@H](CCC(=O)O)NC(=O)C(C)(C)NC(=O)[C@@H](N)Cc1ccc(O)cc1)[C@@H](C)O)[C@@H](C)O)[C@@H](C)CC)C(=O)N[C@@H](CCC(=O)O)C(=O)N[C@@H](CCC(=O)O)C(=O)N[C@@H](CCC(=O)O)C(=O)N[C@@H](C)C(=O)N[C@H](C(=O)N[C@@H](CCCNC(=N)N)C(=O)N[C@@H](CC(C)C)C(=O)N[C@@H](Cc1ccccc1)C(=O)N[C@H](C(=O)N[C@@H](CCC(=O)O)C(=O)N[C@@H](Cc1c[nH]c2ccccc12)C(=O)N[C@@H](CC(C)C)C(=O)N[C@@H](CCCCN)C(=O)N[C@@H](C)C(=O)NCC(=O)NCC(=O)N1CCC[C@H]1C(=O)N[C@@H](CO)C(=O)N[C@@H](CO)C(=O)NCC(=O)N[C@@H](C)C(=O)N1CCC[C@H]1C(=O)N1CCC[C@H]1C(=O)N1CCC[C@H]1C(=O)N[C@@H](CO)C(N)=O)[C@@H](C)CC)C(C)C)C(=O)O", "note": "[SEQ ID NO: 10, Y-Aib-E-G-T-F-T-S-D-L-S-I-Q-K(γE-x70)-EEEAVRLFIEWLKAGGPSSGAPPPS-NH2] (H-Y[Aib]EGTFTSDLSIQK([γGlu-Stearoyl])EEEAVRLFIEWLKAGGPSSGAPPPS-NH2)", "values": [{"measurement": "metabolised at 2 h, 2 μM", "setting": "[1]", "value": 0, "unit": "%"}, {"measurement": "EC50", "setting": "[2]", "value": "> 1000", "unit": "nM"}, {"measurement": "metabolised at 2 h, 2 μM", "setting": "[3]", "value": 33, "unit": "%"}, {"measurement": "EC50", "setting": "[4]", "value": 6.7, "unit": "pM"}, {"measurement": "solubility at 2 h", "setting": "[5]; pH 4.5, read-out: Solubility (pH 4.5)", "value": 120, "unit": "µg/mL"}, {"measurement": "solubility at 2 h", "setting": "[5]; pH 7.4, read-out: Solubility (pH 7.4)", "value": "> 1000", "unit": "µg/mL"}, {"measurement": "Cmax", "setting": "[6]", "value": 5740, "unit": "ng/mL"}, {"measurement": "half-life", "setting": "[6]", "value": 258, "unit": "min"}, {"measurement": "Stability (pH 4.5)", "setting": "[7]; pH 4.5", "value": 99.0, "unit": "%"}, {"measurement": "Stability (pH 7.4)", "setting": "[7]; pH 7.4", "value": 97.0, "unit": "%"}]}]}
